Laboratory results taken from patent publication US8557800B2, “Sphingosine kinase inhibitors” (Apogee Biotechnology Corporation, priority 2005, dated 2013).

Key:
recombinant human SK = experiment: Inhibition of recombinant human SK, LC/MS/MS assay; type: biochemical; conditions: 6 μg/ml compound
Summary of the method: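 Enzyme incubated with unlabeled sphingosine and ATP (1 mM, as in the radiometric format) for 30 min, then stopped and extracted with acetonitrile. S1P quantified by C8 reverse-phase HPLC–MS/MS against C17 sphingosine and C17 S1P internal standards using calibration curves.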

[1] = tested on: MCF-7 human breast adenocarcinoma cells; experiment: Cytotoxicity, SRB binding assay; type: cell-based; conditions: MCF7, inhibition of cell proliferation, 48 h, read-out: MCF-7 IC50
Summary of the method: (§1)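 Cells exposed to varying compound doses for 48 h, then survival measured by sulforhodamine B staining. IC50 is the concentration giving 50% proliferation inhibition, in μM, as mean±sd of replicate trials.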

[2] = tested on: MCF-10A non-transformed human breast epithelial cells; experiment: Cytotoxicity, SRB binding assay; type: cell-based; conditions: inhibition of cell proliferation, 48 h, read-out: MCF-10A IC50
Summary of the method: as §1

Compound | Recombinant SK (% inhibition) (recombinant human SK) | IC50 [1] | IC50 [2]
CC(C)NC(=O)C12CC3CC(C1)CC(c1ccc(Cl)cc1)(C3)C2 [Compound 1, 3-(4-Chloro-phenyl)-adamantane-1-carboxylic acid isopropylamide] | 38% | 23 µM | 151 µM
O=C(NCCc1ccccc1)C12CC3CC(C1)CC(c1ccc(Cl)cc1)(C3)C2 [Compound 37, 3-(4-Chloro-phenyl)-adamantane-1-carboxylic acid phenethyl-amide] | 24% | 5 µM | 127 µM
CN1CCN(NC(=O)C23CC4CC(C2)CC(c2ccc(Cl)cc2)(C4)C3)CC1 [Compound 52, 3-(4-Chloro-phenyl)-adamantane-1-carboxylic acid (4-methyl-piperazin-1-yl)-amide] | 54% | 10 µM | 15 µM
O=C(Nc1cccc(CO)c1)C12CC3CC(C1)CC(c1ccc(Cl)cc1)(C3)C2 [Compound 9, 3-(4-Chloro-phenyl)-adamantane-1-carboxylic acid (3-hydroxymethyl-phenyl)-amide] | 84% | 9 µM | 17 µM
O=C(NCCc1ccc(O)cc1)C12CC3CC(C1)CC(c1ccc(Cl)cc1)(C3)C2 [Compound 40, 3-(4-Chloro-phenyl)-adamantane-1-carboxylic acid [2-(4-hydroxy-phenyl)-ethyl]-amide] | 100% | 6 µM | 37 µM
O=C(Nc1ccc(O)cc1O)C12CC3CC(C1)CC(c1ccc(Cl)cc1)(C3)C2 [Compound 8, 3-(4-Chloro-phenyl)-adamantane-1-carboxylic acid (2,4-dihydroxy-phenyl)-amide] | 49% | 47 µM | 94 µM
CC(C)(C)c1ccc(CNC(=O)C23CC4CC(C2)CC(c2ccc(Cl)cc2)(C4)C3)cc1 [Compound 13, 3-(4-Chloro-phenyl)-adamantane-1-carboxylic acid 4-tert-butyl-benzylamide] | 78% | 51 µM | 115 µM
CCn1c2ccccc2c2cc(NC(C)C34CC5CC(CC(c6ccc(Cl)cc6)(C5)C3)C4)ccc21 (stereo not drawn) [Compound 114, {1-[3-(4-Chloro-phenyl)-adamantan-1-yl]-ethyl}-(9-ethyl-9H-carbazol-3-yl)-amine] | 33% | 55 µM | 9 µM
Clc1ccc(-c2cnc(NCC34CC5CC(C3)CC(c3ccc(Cl)cc3)(C5)C4)s2)cc1 [Compound 90, [3-(4-Chloro-phenyl)-adamantan-1-ylmethyl]-[5-(4-chloro-phenyl)-thiazol-2-yl]-amine] | 26% | 96 µM | 107 µM
O=C(Nc1nc(-c2ccc(Cl)cc2)cs1)C12CC3CC(C1)CC(c1ccc(Cl)cc1)(C3)C2 [Compound 70, 3-(4-Chloro-phenyl)-adamantane-1-carboxylic acid [4-(4-chloro-phenyl)-thiazol-2-yl]-amide] | 33% | 7 µM | 103 µM
CC(NC(=O)C12CC3CC(C1)CC(c1ccc(Cl)cc1)(C3)C2)c1ccc(Br)cc1 (stereo not drawn) [Compound 29, 3-(4-Chloro-phenyl)-adamantane-1-carboxylic acid [1-(4-bromo-phenyl)-ethyl]-amide] | 55% | 7 µM | 106 µM
CCn1c2ccccc2c2cc(NC(=O)C34CC5CC(C3)CC(c3ccc(Cl)cc3)(C5)C4)ccc21 [Compound 68, 3-(4-Chloro-phenyl)-adamantane-1-carboxylic acid (9-ethyl-9H-carbazol-3-yl)-amide] | 17% | 54 µM | 104 µM
O=C(NCCc1ccc(Br)cc1)C12CC3CC(C1)CC(c1ccc(Cl)cc1)(C3)C2 [Compound 39, 3-(4-Chloro-phenyl)-adamantane-1-carboxylic acid [2-(4-bromo-phenyl)-ethyl]-amide] | 19% | 15 µM | 106 µM
Clc1ccc(C23CC4CC(CC(CNCCN5CCOCC5)(C4)C2)C3)cc1 [Compound 87, [3-(4-Chloro-phenyl)-adamantan-1-ylmethyl]-(2-morpholin-4-yl-ethyl)-amine] | 75% | 38 µM | 33 µM
O=C(Nc1nc2cc(Cl)ccc2o1)C12CC3CC(C1)CC(c1ccc(Cl)cc1)(C3)C2 [Compound 72, 3-(4-Chloro-phenyl)-adamantane-1-carboxylic acid (5-chloro-benzooxazol-2-yl)-amide] | 14% | 2 µM | 6 µM
O=C(Nc1ccc(O)cc1)C12CC3CC(C1)CC(c1ccc(Cl)cc1)(C3)C2 [Compound 6, 3-(4-Chloro-phenyl)-adamantane-1-carboxylic acid (4-hydroxy-phenyl)-amide] | 72% | 5 µM | 15 µM
Cc1cc2cc(NC(=O)C34CC5CC(C3)CC(c3ccc(Cl)cc3)(C5)C4)ccc2[nH]1 [Compound 66, 3-(4-Chloro-phenyl)-adamantane-1-carboxylic acid (2-methyl-1H-indol-5-yl)-amide] | 92% | 19 µM | 53 µM
N#CCc1ccc(NC(=O)C23CC4CC(C2)CC(c2ccc(Cl)cc2)(C4)C3)cc1 [Compound 11, 3-(4-Chloro-phenyl)-adamantane-1-carboxylic acid (4-cyanomethyl-phenyl)-amide] | 17% | 87 µM | 87 µM
O=C(NCCc1ccc(F)cc1)C12CC3CC(C1)CC(c1ccc(Cl)cc1)(C3)C2 [Compound 38, 3-(4-Chloro-phenyl)-adamantane-1-carboxylic acid [2-(4-fluoro-phenyl)-ethyl]-amide] | 40% | 9 µM | 40 µM
O=C(Nc1nc2ccccc2s1)C12CC3CC(C1)CC(c1ccc(Cl)cc1)(C3)C2 [Compound 71, 3-(4-Chloro-phenyl)-adamantane-1-carboxylic acid benzothiazol-2-ylamide] | 27% | 21 µM | 118 µM
O=C(Nc1ccccc1)C12CC3CC(C1)CC(c1ccc(Cl)cc1)(C3)C2 [Compound 4, 3-(4-Chloro-phenyl)-adamantane-1-carboxylic acid phenylamide] | 44% | 72 µM | 137 µM
O=C(NCc1ccccc1)C12CC3CC(C1)CC(c1ccc(Cl)cc1)(C3)C2 [Compound 12, 3-(4-Chloro-phenyl)-adamantane-1-carboxylic acid benzylamide] | 36% | 11 µM | 99 µM
O=C(NCCc1ccncc1)C12CC3CC(C1)CC(c1ccc(Cl)cc1)(C3)C2 [Compound 64, 3-(4-Chloro-phenyl)-adamantane-1-carboxylic acid (2-pyridin-4-yl-ethyl)-amide] | 41% | 8 µM | 20 µM
O=C(Nc1nc(-c2ccc(Cl)cc2)cs1)C12CC3CC(CC(C3)C1)C2 [Compound 69, Adamantane-1-carboxylic acid [4-(4-chloro-phenyl)-thiazol-2-yl]-amide] | 40% | 30 µM | 106 µM
